Holding throughout (type): cell-based
Assay [1] concerns C3H10T½ mouse embryonic fibroblasts. Briefly: EdU proliferation assay (flow cytometry). The conditions noted are these: C3H10T½ cells; 10 μM AG1296 with 20 ng/ml PDGF−BB. As for the experimental part: FIG. 8. Proliferation of C3H10T½ Cells Following Treatment with PDGF and Novel PDGF Mimetic Peptides. Cultured C3H10T½ mouse embryonic fibroblast cells were treated with 20 ng/ml recombinant PDGF−AB or PDGF−BB protein ligands, and 2 μg/ml of novel PDGF mimetics JC5 or JC5a for 24 hr, in the presence of 1% fetal bovine serum (FBS). Percent proliferating cell was determined after a 2 hr pulse with nucleotide analogue EdU at the end of the incubation period. […] Co-treatment of protein/peptides with 10 μM of PDGF receptor antagonist, AG1296, confirmed that PDGF-BB-stimulated proliferation occurred via the PDGF ligand/receptor pathway. […] Error bars represent ±SD, n=3. Statistical analysis was using One-Way Anova: * p<0.05; ** p<0.01; *** p<0.001; **** p<0.0001. The mitotic effects of PDGF mimetic peptides JC5 and JC5a were tested using cultured C3H10T½ mouse embryonic fibroblasts. Proliferation was assayed after a pulse of nucleotide analogue 5-ethynyl-2′-deoxyuridine (EdU) and fluorescent detection using flow cytometry. Cells were treated with 20 ng/ml PDGF−BB or PDGF−AB, and 2 μg/ml of peptides JC5 or JC5a, in the presence of 1% fetal bovine serum (FBS) and DMEM for 24 hr. 10% FBS was used as a positive control, and co-treatments with specific PDGF receptor antagonist, AG1296, was used to ascertain whether proliferation occurred via the PDGF ligand/receptor pathway. Assays were performed in biological triplicate.
(In general: In flow cytometry, cells or beads pass a laser one at a time.)

Assay [2] concerns C2C12 mouse myoblasts. Nature of the assay: Scratch migration (chemotaxis) assay on C2C12 cells. As for the experimental part: FIG. 2. Migration of C2C12 Mouse […] Cells Treated with PDGF and peptides JC5 and JC5a. C2C12 mouse fibroblast cells migrate across the scratch over 24 hours. Cells were treated with 10 ng/ml PDGF−AB (n=6), PDGF−BB (n=6), and 1 μg/ml of novel PDGF mimetic JC5 (n=6) and JC5a (n=3). […] There was also no statistically significant difference between the PDGF mimetic peptides and PDGF−AB and −BB positive controls. Error bars represent ±SD. The function of Compounds Ia (also referred to herein as JC5) and Ib (also referred to herein as JC5a) has been tested in vitro on the continuous cell line, C2C12 mouse myoblasts. In these in vitro assays recombinant PDGF−AB and −BB have been used as positive controls along with a serum starved no treatment control and the PDGF receptor inhibitor AG1296 co-treated with PDGF−AB as a negative control. The in vitro assays were designed to assess the major known functions of PDGF whilst also considering functions that are relevant to its in vivo applications. These functions were chemotaxis, collagen contraction, vascular tube formation and activation of the PDGF receptors via phosphorylation of Akt and Erk. Chemotaxis was assessed by making a scratch through a 2D culture of C2C12 cells following treatment with the four controls and the peptides JC5 and JC5a. They were then incubated for 24 hours at 37° C. Migration of the cells across the scratch at the conclusion of the incubation was measured and compared to the relevant controls described above. PDGF is a well-established mediator of chemotaxis and is expected to increase migration of the cells across the scratch over the course of 24 hours post treatment.

Assay [3] relates to C2C12 mouse myoblasts. Nature of the assay: Collagen gel contraction assay with C2C12 cells. An excerpt: FIG. 3. Collagen Contraction of C2C12 Mouse Fibroblasts Treated with PDGF and peptides JC5 and JC5a. […] Error bars represent ±SD, n=8/4. The function of Compounds Ia (also referred to herein as JC5) and Ib (also referred to herein as JC5a) has been tested in vitro on the continuous cell line, C2C12 mouse myoblasts. In these in vitro assays recombinant PDGF−AB and −BB have been used as positive controls along with a serum starved no treatment control and the PDGF receptor inhibitor AG1296 co-treated with PDGF−AB as a negative control. The in vitro assays were designed to assess the major known functions of PDGF whilst also considering functions that are relevant to its in vivo applications. These functions were chemotaxis, collagen contraction, vascular tube formation and activation of the PDGF receptors via phosphorylation of Akt and Erk. Collagen contraction is an important function during wound healing of many tissues including the heart. This can be simulated in vitro using a collagen gel contraction assay. This was assessed using C2C12 cells treated with the positive controls 10 ng/ml recombinant PDGF-BB and PDGF−AB, negative control 10 μM AG1296 co-treated with 10 ng/ml recombinant PDGF−AB, a serum starved no treatment control and 1 μg/ml of the peptides JC5 and JC5a. C2C12 mouse myoblasts were seeded in a 3D collagen gel crosslinked with NaOH and incubated at 37° C. for 24 hours following treatment with the four controls and peptides JC5 and JC5a.

Assay [4] has as its system primary human coronary artery endothelial cells (HCAECs). Briefly: Vascular tube forming assay on Geltrex. Particulars: 24 hours. As for the experimental part: FIG. 4. Tube formation of Human Coronary Artery Endothelial Cells Treated with PDGF and PDGF Mimetic Peptide JC5. Human coronary artery endothelial cells treated with 50 ng/ml of PDGF−AB and PDGF−BB produced longer tubes than untreated cells and cells treated with the PDGF receptor inhibitor AG1296+PDGF−AB. […] Error bars represent ±SD, n=3/group.
PDGF has a well-established role in angiogenesis in vivo. To simulate this function in vitro a vascular tube forming assay on primary human coronary artery endothelial cells (HCAECs) was carried out. Cells were seeded on top of 3D growth factor reduced Geltrex basement membrane extract and incubated for 24 hours following treatment with the PDGF−AB, PDGF-BB, no treatment control, AG1296+PDGF−AB negative control, and peptides JC5 and JC5a. Over the course of 24 hours the cells form tubes throughout the gel. PDGF is reported to facilitate tube formation of endothelial cells in in vitro 3D assays.
Cells treated with 50 ng/ml of PDGF−AB, PDGF-BB, and 5 μg/ml of JC5 produced longer more uniform tubes than untreated cells and cells treated with the negative control 10 μM PDGF receptor inhibitor AG1296 co-treated with 50 ng/ml PDGF−AB (FIG. 4). The positive controls PDGF−AB and PDGF−BB produced tubes that were 560.7 μm (±53.93) and 616.3 μm (±39.07), respectively. […] The no treatment control and AG1296+PDGF−AB negative control produced tubes that were 305 μm and 307.7 μm, respectively. […] In summary, JC5 has similar vascular tube forming ability to recombinant human PDGF−AB and PDGF-BB.

The target of another assay is T1, PDGF receptor (Mus musculus, UniProt P05622).
T1 construct: Phosphorylation of ERK following treatment of C2C12 Cells with PDGF and JC5; endogenous in cells; host or cells: C2C12 mouse myoblasts
T1 sequence (P05622 32-1098): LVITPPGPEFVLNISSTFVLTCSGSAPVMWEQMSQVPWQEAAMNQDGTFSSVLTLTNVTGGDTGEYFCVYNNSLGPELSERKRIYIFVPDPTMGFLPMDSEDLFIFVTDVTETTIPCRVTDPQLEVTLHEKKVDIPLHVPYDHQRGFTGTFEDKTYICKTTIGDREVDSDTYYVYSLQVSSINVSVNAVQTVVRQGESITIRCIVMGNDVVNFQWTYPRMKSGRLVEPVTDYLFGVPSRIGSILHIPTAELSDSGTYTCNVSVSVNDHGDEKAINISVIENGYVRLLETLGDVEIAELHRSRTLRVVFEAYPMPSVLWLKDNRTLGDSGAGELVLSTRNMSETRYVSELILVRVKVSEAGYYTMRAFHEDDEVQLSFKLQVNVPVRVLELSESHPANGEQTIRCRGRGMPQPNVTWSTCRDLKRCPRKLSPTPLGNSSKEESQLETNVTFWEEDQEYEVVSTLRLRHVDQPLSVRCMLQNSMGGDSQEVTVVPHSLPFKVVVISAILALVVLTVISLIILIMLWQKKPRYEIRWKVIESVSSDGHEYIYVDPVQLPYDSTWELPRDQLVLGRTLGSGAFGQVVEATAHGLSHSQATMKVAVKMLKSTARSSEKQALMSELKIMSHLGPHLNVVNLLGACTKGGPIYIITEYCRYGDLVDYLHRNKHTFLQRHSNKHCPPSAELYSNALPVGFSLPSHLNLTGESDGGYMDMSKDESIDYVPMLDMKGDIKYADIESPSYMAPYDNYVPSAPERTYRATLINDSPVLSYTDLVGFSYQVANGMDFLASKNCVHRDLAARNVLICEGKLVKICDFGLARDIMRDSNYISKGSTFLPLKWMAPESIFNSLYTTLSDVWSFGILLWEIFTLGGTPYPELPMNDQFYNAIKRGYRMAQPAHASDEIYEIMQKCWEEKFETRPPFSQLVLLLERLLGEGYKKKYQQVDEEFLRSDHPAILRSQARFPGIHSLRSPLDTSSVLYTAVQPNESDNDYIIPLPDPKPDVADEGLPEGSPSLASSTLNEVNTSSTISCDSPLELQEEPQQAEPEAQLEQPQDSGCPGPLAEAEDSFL
Nature of the assay: Western blot for phosphorylation of ERK in C2C12 cells (PDGF receptor activation). The conditions noted are these: 10 ng/ml PDGF, 1 μg/ml peptide, vs no treatment and AG1296+PDGF−AB controls. As to the method: FIG. 5. Phosphorylation of ERK following treatment of C2C12 Cells with PDGF and JC5. Western blots for total (ERK) and phosphorylated ERK (pERK) at 42 and 44 kDa show an increase in phosphorylation following treatment with 10 ng/ml PDGF−BB and 1 μg/ml of JC5. FIG. 6. Phosphorylation of ERK following treatment of C2C12 Cells with PDGF and JC5a. Western blots for total (ERK) and phosphorylated ERK (pERK) at 42 and 44 kDa show an increase in phosphorylation 10 minutes post treatment with 10 ng/ml PDGF−BB and 1 μg/ml of novel mimetic peptide JC5a. JC5a maintained this increased phosphorylation of ERK at 30 minutes post treatment. PDGF receptor activation takes place via autophosphorylation of tyrosine […] residues at key sites throughout the intracellular domain. Autophosphorylation engages different signaling pathways, including ERK (MAPK) which participates in proliferation, cell survival, angiogenesis, and chemotactic activity of cells. Phosphorylation of ERK indicates successful activation of the PDGF receptor.

2 molecules from patent US20260085101A1, “NOVEL PLATELET DERIVED GROWTH FACTOR PEPTIDE MIMETIC” (THE UNIVERSITY OF SYDNEY, priority 2022, published 2026) can be followed below.

Turning to `COc1cc2ncc(-c3ccccc3)nc2cc1OC` [AG1296, reference compound], the “effect of AG1296 co-treatment on PDGF−BB-stimulated EdU uptake” value in assay [1] is “significantly inhibited”.

“PDGF−BB: recombinant human PDGF-BB protein ligand, positive control”: the “migration of cells across the scratch” value in the assay with C2C12 mouse myoblasts [2] (24 hours at 37° C., 10 ng/ml PDGF, 1 μg/ml peptides, mean (±SD)) is listed as 75.02%. In the assay with C2C12 mouse myoblasts [2] (24 hours, vs AG1296+PDGF−AB negative control), the “increase in migration compared to the negative control (Mean Diff)” value worked out at 58.45%. In the assay on C2C12 mouse myoblasts [2] (24 hours, vs no treatment control), the “increase in migration compared to the no treatment control (Mean Diff.)” value was determined as 54.70%. In the assay on C2C12 mouse myoblasts [3] (24-hour incubation, 10 ng/ml PDGF, 1 μg/ml peptides, 10 μM AG1296, mean (±SD)), the “collagen gel contracted to % of its initial surface area” value is given as 23.42%. In addition, in the assay on C2C12 mouse myoblasts [3] (24 hours, vs negative control (55.25%)), the “difference in collagen gel area versus negative control AG1296 co-treated with PDGF−AB (Mean Diff.)” value turned out to be 31.83%. Further, the “difference in collagen gel area versus no treatment control (Mean Diff.)” value in the assay with C2C12 mouse myoblasts [3] (24 hours, vs no treatment control (41.27%)) is listed as 17.86%. In assay [4] (50 ng/ml PDGF, 5 μg/ml JC5, 10 μM AG1296, mean (±SD)), this molecule displayed a tube length of 616.3 μm. The “increased tube length compared to the negative control (Mean Diff.)” value in assay [4] (vs AG1296+PDGF−AB (307.7 μm)) was determined as 308.7 μm. The “increased tube length compared to the no treatment control (Mean Diff.)” value in assay [4] (vs no treatment control (305 μm)) is given as 311.3 μm. In addition, in the assay with PDGF receptor, the “phosphorylation of ERK (pERK)” value was “phosphorylation of ERK (pERK) can be seen”.
